Results: patent publication US20130060013A1, “Compounds useful for treating neurodegenerative disorders” (SATORI PHARMACEUTICALS, INC., priority 2011, published 2013)

Key:
Format in all cases: cell-based
Conditions in all cases: Homo sapiens, compound 5 hours at 37° C., 1% DMSO, percent vehicle fit to 4 parameter curve
Aβ-38 = Aβ-38 level in conditioned media of 2B7 cells (MSD 3-PLEX ELISA)
Procedure, shortened: (§1)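 2B7 cells at confluence were exposed to compound dilutions in medium (1% DMSO final) for 5 h at 37 °C. Conditioned medium, diluted 1:1 in blocking buffer, was assayed by MSD 3-plex electrochemiluminescence ELISA, and levels were read from a seven-point standard curve. IC50 came from a 4-parameter fit of percent-of-vehicle values.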

Aβ-40 = Aβ-40 level in conditioned media of 2B7 cells (MSD 3-PLEX ELISA)
Procedure: Assays were conducted to determine the ability of a Compound of Formula I to modulate […], and Aβ-38.
Human (6E10) Ab 3-PLEX elisa kits were purchased from Meso Scale Discovery Labs, 9328 Gaither Road, Gaithersburg, Md. 20877 (Catalog Number K15148E-3). Plates with capture antibodies were blocked for 1-2 hours at room temperature with 150 μL of the manufactures blocking reagent.
Cultured 2B7 cells in 96 well plate with 250 uL of media per well until confluent;
Prepared serial dilutions of compounds in DMSO at 100× the final desired concentration;
Washed wells with 2B7 cells 1× with 250 uL of media;
Diluted DMSO stocks 1:100 into media:
Added 250 μL of media containing compounds (1% DMSO) to wells with 2B7 cells for 5 hours at 37° C.
Diluted conditioned media: 1 part media with 1% DMSO and 1 part blocking buffer;
150 μL of the 250 μL of conditioned media were used.
Standard Curve Sample Prep:
Prepared per manufacturer's protocol (see above)
Seven point standard curve samples were prepared that contained Aβ-42, Aβ-40, and Aβ-38. The highest concentration of Aβ-42 and Aβ-38 was 3,000 pg/mL and the highest concentration of Aβ-40 was 10,000 pg/mL. Subsequent serial dilutions were 1:3 and the final composition of each sample was 1 part blocking buffer and 1 part cell medium containing 1% DMSO.
Overnight Sample Incubation:
Blocked plates are washed 5× with MSD wash buffer with a plate washer
25 uL of detection antibody and blocker G reagent in MSD blocking solution is added
25 uL of samples (1 part conditioned media containing 1% DMSO and 1 part MSD blocking buffer) are then added.
plates are incubated overnight at 4 degrees C. or 2 hours at room temp
Wash wells 5× with MSD wash buffer
Added 150 μL 2×MSD read buffer
A-Beta peptide levels for each peptide are calculated from the standard curve using the MSD software provided with the MSD 2400 Imager. Percent vehicle values for each compound dosage were then calculated and fit to a 4 parameter curve generating IC50 values.

Aβ-42 = Aβ-42 level in conditioned media of 2B7 cells (MSD 3-PLEX ELISA)
Procedure, shortened: as §1

Structure (SMILES) | IC50 (Aβ-38) [µM] | IC50 (Aβ-40) [µM] | IC50 (Aβ-42) [µM]
CCO[C@@H]([C@H]1C[C@@H](C)[C@H]2[C@H](O1)[C@H](O)[C@@]1(C)[C@@H]3CC[C@H]4C(C)(C)[C@@H](O[C@H]5CN([C@H](C)COC)CCO5)CCC45C[C@@]35CC[C@]21C)C(C)(C)O (stereo partly drawn) | 1 to 10 | > 10 | < 1
CCO[C@@H](C1C[C@@H](C)[C@H]2C(O1)[C@H](O)[C@@]1(C)C3CC[C@H]4C(C)(C)[C@@H](O[C@H]5CN(c6cnccn6)CCO5)CCC45C[C@@]35CC[C@]21C)C(C)(C)O (stereo partly drawn) | < 1 | > 10 | < 1
CCO[C@@H]([C@H]1C[C@@H](C)[C@H]2[C@H](O1)[C@H](O)[C@@]1(C)[C@@H]3CC[C@H]4C(C)(C)[C@@H](OC5CN(CC(=O)N6CCOCC6)CCO5)CCC45C[C@@]35CC[C@]21C)C(C)(C)O (stereo partly drawn) | < 1 | > 10 | < 1
CCO[C@@H]([C@H]1C[C@@H](C)[C@H]2[C@H](O1)[C@H](O)[C@@]1(C)[C@@H]3CC[C@H]4C(C)(C)[C@@H](O[C@H]5CN(CC6CN(C)C6)CCO5)CCC45C[C@@]35CC[C@]21C)C(C)(C)OC (stereo partly drawn) | < 1 | 1 to 10 | < 1
CCO[C@@H]([C@H]1C[C@@H](C)[C@H]2[C@H](O1)[C@H](O)[C@@]1(C)[C@@H]3CC[C@H]4C(C)(C)[C@@H](O[C@H]5CN(CCO)CCO5)CCC45C[C@@]35CC[C@]21C)C(C)(C)O (stereo partly drawn) | < 1 | 1 to 10 | < 1
CO[C@@H](C1C[C@@H](C)[C@H]2C(O1)[C@H](O)[C@@]1(C)C3CC[C@H]4C(C)(C)[C@@H](O[C@H]5CNCCO5)CC[C@@]45CC35CC[C@]21C)C(C)(C)O (stereo partly drawn) | < 1 | 1 to 10 | < 1
CO[C@@H]([C@H]1C[C@@H](C)[C@H]2[C@H](O1)[C@H](O)[C@@]1(C)[C@@H]3CC[C@H]4C(C)(C)[C@@H](OC5CN(C6CCN(C)C6=O)CCO5)CCC45C[C@@]35CC[C@]21C)C(C)(C)O (stereo partly drawn) | < 1 | > 10 | < 1
CCO[C@@H]([C@H]1C[C@@H](C)[C@H]2[C@H](O1)[C@H](O)[C@@]1(C)[C@@H]3CC[C@H]4C(C)(C)[C@@H](O[C@H]5CN(CCCO)CCO5)CCC45C[C@@]35CC[C@]21C)C(C)(C)O (stereo partly drawn) | 1 to 10 | 1 to 10 | < 1
CCO[C@@H](C1C[C@@H](C)[C@H]2C(O1)[C@H](O)[C@@]1(C)C3CC[C@H]4C(C)(C)[C@@H](O[C@H]5CN(C(=O)CC6CN(C)C6)CCO5)CCC45C[C@@]35CC[C@]21C)C(C)(C)O (stereo partly drawn) | < 1 | 1 to 10 | < 1
CCO[C@@H]([C@H]1C[C@@H](C)[C@H]2[C@H](O1)[C@H](O)[C@@]1(C)[C@@H]3CC[C@H]4C(C)(C)[C@@H](O[C@H]5CN(CC(C)(C)O)CCO5)CCC45C[C@@]35CC[C@]21C)C(C)(C)O (stereo partly drawn) | < 1 | 1 to 10 | < 1
CCO[C@@H]([C@H]1C[C@@H](C)[C@H]2[C@H](O1)[C@H](O)[C@@]1(C)[C@@H]3CC[C@H]4C(C)(C)[C@@H](O[C@H]5CN(Cc6ccn(C)n6)CCO5)CCC45C[C@@]35CC[C@]21C)C(C)(C)O (stereo partly drawn) | 1 to 10 | > 10 | < 1
CCO[C@@H]([C@H]1C[C@@H](C)[C@H]2[C@H](O1)[C@H](O)[C@@]1(C)[C@@H]3CC[C@H]4C(C)(C)[C@@H](OC(=O)[C@@H]5COCCN5C(C)C)CCC45C[C@@]35CC[C@]21C)C(C)(C)O (stereo partly drawn) | 1 to 10 | > 10 | < 1
CCO[C@@H]([C@H]1C[C@@H](C)[C@H]2[C@H](O1)[C@H](O)[C@@]1(C)[C@@H]3CC[C@H]4C(C)(C)[C@@H](OC(=O)C5CCN5C)CCC45C[C@@]35CC[C@]21C)C(C)(C)O (stereo partly drawn) | 1 to 10 | > 10 | < 1
COCCN1CCO[C@@H](O[C@H]2CCC34C[C@]35CC[C@]3(C)[C@@H]6[C@H](O[C@@H]([C@H](OC)C(C)(C)OC)C[C@H]6C)[C@H](O)[C@@]3(C)[C@@H]5CC[C@H]4C2(C)C)C1 (stereo partly drawn) | 1 to 10 | > 10 | < 1
CCO[C@@H]([C@H]1C[C@@H](C)[C@H]2[C@H](O1)[C@H](O)[C@@]1(C)[C@@H]3CC[C@H]4C(C)(C)[C@@H](OC(=O)[C@@H]5CCCN5)CCC45C[C@@]35CC[C@]21C)C(C)(C)O (stereo partly drawn) | < 1 | 1 to 10 | < 1
CCO[C@@H]([C@H]1C[C@@H](C)[C@H]2[C@H](O1)[C@H](O)[C@@]1(C)[C@@H]3CC[C@H]4C(C)(C)C(O[C@H]5CN(CCCNCCCOCCOCCOCCCNC(=O)CCCCC6SC[C@@H]7NC(=O)N[C@H]67)CCO5)CC[C@@]45CC35CC[C@]21C)C(C)(C)O (stereo partly drawn) | < 1 | 1 to 10 | < 1
CCO[C@@H]([C@H]1C[C@@H](C)[C@H]2[C@H](O1)[C@H](O)[C@@]1(C)[C@@H]3CC[C@H]4C(C)(C)[C@@H](O[C@H]5CN([C@@H](C)C(=O)N6CCC6)CCO5)CCC45C[C@@]35CC[C@]21C)C(C)(C)O (stereo partly drawn) | 1 to 10 | > 10 | < 1
CO[C@@H]([C@H]1C[C@@H](C)[C@H]2[C@H](O1)[C@H](O)[C@@]1(C)[C@@H]3CC[C@H]4C(C)(C)[C@@H](O[C@H]5CN(CCN6CCOCC6)CCO5)CCC45C[C@@]35CC[C@]21C)C(C)(C)O (stereo partly drawn) | < 1 | 1 to 10 | < 1
CO[C@@H]([C@H]1C[C@@H](C)[C@H]2[C@H](O1)[C@H](O)[C@@]1(C)[C@@H]3CC[C@H]4C(C)(C)[C@@H](O[C@H]5CN(C6CNC6)CCO5)CCC45C[C@@]35CC[C@]21C)C(C)(C)O (stereo partly drawn) | < 1 | 1 to 10 | < 1
CCO[C@@H]([C@H]1C[C@@H](C)[C@H]2[C@H](O1)[C@H](O)[C@@]1(C)[C@@H]3CC[C@H]4C(C)(C)[C@@H](O[C@H]5CN([C@@H](C)COC)CCO5)CC[C@@]45C[C@@]35CC[C@]21C)C(C)(C)O | 1 to 10 | > 10 | < 1
CCO[C@@H]([C@H]1C[C@@H](C)[C@H]2[C@H](O1)[C@H](O)[C@@]1(C)[C@@H]3CC[C@H]4C(C)(C)[C@@H](O[C@H]5CN(C6CN(C(C)C)C6)CCO5)CCC45C[C@@]35CC[C@]21C)C(C)(C)OC (stereo partly drawn) | < 1 | 1 to 10 | < 1
CO[C@@H](C1C[C@@H](C)[C@H]2C(O1)[C@H](O)[C@@]1(C)C3CC[C@H]4C(C)(C)[C@@H](O[C@H]5CN(C)CCO5)CC[C@@]45CC35CC[C@]21C)C(C)(C)O (stereo partly drawn) | 1 to 10 | 1 to 10 | 1 to 10
CCO[C@@H]([C@H]1C[C@@H](C)[C@H]2[C@H](O1)[C@H](O)[C@@]1(C)[C@@H]3CC[C@H]4C(C)(C)[C@@H](OC(=O)C5CCN5C(=O)OC(C)(C)C)CCC45C[C@@]35CC[C@]21C)C(C)(C)O (stereo partly drawn) | 1 to 10 | 1 to 10 | < 1
CCO[C@@H]([C@H]1C[C@@H](C)[C@H]2[C@H](O1)[C@H](O)[C@@]1(C)[C@@H]3CC[C@H]4C(C)(C)[C@@H](O[C@H]5CN(C6CN(C(C)=O)C6)CCO5)CCC45C[C@@]35CC[C@]21C)C(C)(C)O (stereo partly drawn) | 1 to 10 | 1 to 10 | < 1
CO[C@@H]([C@H]1C[C@@H](C)[C@H]2[C@H](O1)[C@H](O)[C@@]1(C)[C@@H]3CC[C@H]4C(C)(C)[C@@H](O[C@H]5CN(CCN(C)C)CCO5)CCC45C[C@@]35CC[C@]21C)C(C)(C)OC (stereo partly drawn) | < 1 | 1 to 10 | < 1
CCO[C@@H]([C@H]1C[C@@H](C)[C@H]2[C@H](O1)[C@H](O)[C@@]1(C)[C@@H]3CC[C@H]4C(C)(C)[C@@H](O[C@H]5CN([C@@H](C)CF)CCO5)CC[C@@]45C[C@@]35CC[C@]21C)C(C)(C)O | 1 to 10 | > 10 | 1 to 10
CCO[C@@H]([C@H]1C[C@@H](C)[C@H]2[C@H](O1)[C@H](O)[C@@]1(C)[C@@H]3CC[C@H]4C(C)(C)C(O[C@H]5CN(CCNC(=O)CCOCCOCCNC(=O)CCCCC6SC[C@@H]7NC(=O)N[C@H]67)CCO5)CC[C@@]45CC35CC[C@]21C)C(C)(C)O (stereo partly drawn) | 1 to 10 | > 10 | 1 to 10
